Assay results published in patent US20040235666A1, “Substituted imidates as pesticidal agents” (priority 2001, published 2004).

System: Meloidogyne incognita larvae
Test: Meloidogyne test/aqueous system
Format: in vivo
Conditions: 40 ppm; nematicidal action by activity of the larvae; 96-well plate; 100% = no activity found
Procedure: Meloidogyne Test/Aqueous System To prepare a suitable preparation of active compound, 1 part by weight of active compound is mixed with 1 000 parts by weight of methanol, and per preparation to be tested, 10 μl are added to a well of a 96-well plate (from Greiner), where the solvent evaporates. In the 96-well plates, the wells containing the active compound are filled with lecithin solution (0.01%) and Meloidogyne incognita larvae suspension. The concentration of active compound is now 40 ppm. After the time indicated in the table, the nematicidal action is determined in % by the activity of the larvae. 100% means that no activity has been found; 0% means that the activity in the treated wells corresponds to that of the untreated control.

Row | SMILES | Effect in % after 4 days
1 | CC(c1ccc(Cl)cc1)N1CCSC1=NC#N (stereo not drawn) [Example 14] | 100%

System: Meloidogyne incognita egg/larvae
Test: Meloidogyne test (sand, lettuce, gall formation)
Format: in vivo
Conditions: 20 ppm; nematicidal action by gall formation on lettuce roots; 100% = no galls
Procedure: To prepare a suitable preparation of active compound, 1 part by weight of active compound is mixed with 30 parts by weight of dimethylformamide and 1 part by weight of emulsifier (alllylaryl polyglycol ether), and the concentrate is diluted with water to the desired concentration.
Containers are filled with sand, solution of active compound, Meloidogyne incognita egg/larvae suspension and lettuce seeds. The lettuce seeds germinate and the plants develop. On the roots, galls are formed.
After the period of time indicated in the table, the nematicidal action is determined in % using gall formation as a measure. 100% means that no galls were found; 0% means that the number of galls on the treated plants corresponds to that of the untreated control.
In this test, for example, the following compounds of the Preparation Examples show good activity: […]

Row | SMILES | Effect in % after 4 days
2 | CC(c1ccc(Cl)cc1)N1CCNC1=NC#N (stereo not drawn) [Example 1, 1-[1-(4-Chlorophenyl)ethyl]-2-imidazolidinylidenecyanamide] | 98%
3 | CC(c1ccccc1Cl)N1CCSC1=NC#N (stereo not drawn) [Example 3] | 100%
4 | CCC(c1ccccc1Cl)N1CCSC1=NC#N (stereo not drawn) [Example 4] | 100%
5 | CC(c1ccc(Cl)cc1)N1CCSC1=NC#N (stereo not drawn) [Example 14] | 100%
6 | CC(c1ccc(Cl)cc1)N1CCCC1=NC#N (stereo not drawn) [Example 22] | 100%
7 | CC(c1ccc(Cl)cc1)N1CCN(C)C1=NC#N (stereo not drawn) [Example 23] | 90%
8 | CC(c1ccc(Cl)cc1)N1CCCN(C)C1=NC#N (stereo not drawn) [Example 28] | 95%

System: not listed separately
Test: log P determination by HPLC (EEC Directive 79/831 Annex V.A8, reversed-phase C18)
Format: physicochemical
Conditions: reversed-phase C18 HPLC column, C18, 43° C., 0.1% aqueous phosphoric acid/acetonitrile gradient
Procedure: The log P values given in Table 1 were determined in accordance with EEC Directive 79/831 Annex V.A8 by HPLC (High Performance Liquid Chromatography) using a reversed-phase column (C18). Temperature: 43° C. Mobile phase: 0.1% aqueous phosphoric acid, acetonitrile; linear gradient from 10% acetonitrile to 90% acetonitrile Calibration was carried out using unbranched alkan-2-ones (having 3 to 16 C atoms) with known log P values. (Determination of the log P values by the retention times using linear interpolation between two successive alkanones).

Row | SMILES | chromatographic logP
9 | CSc1ccc(Oc2cccc(CCN3CCSC3=NC#N)c2)cc1 [Example 21] | 3.29
10 | N#CN=C1SCCN1C1Cc2ccc(Cl)cc2C1 (stereo not drawn) [Example 33] | 2.68
11 | CSc1ccc(Oc2ccccc2CCN2CCS/C2=N\C#N)cc1 [Example 45] | 3.33
12 | CC(=O)Oc1ccc(CCN2CCS/C2=N\C#N)cc1 [Example 46] | 1.89
13 | CC(c1ccc(Cl)cc1Cl)N1CCCO/C1=N\C#N (stereo not drawn) [Example 47] | 2.43
14 | CC(c1ccc(Cl)c(Cl)c1)N1CCCO/C1=N\C#N (stereo not drawn) [Example 48] | 2.59

Second part, the compound after the results:

Row | chromatographic logP | SMILES
15 | 2.09 | CCc1ccc(C(C)N2CCSC2=NC#N)cc1 (stereo not drawn) [Example 7]
16 | 3.06 | Cc1ccc(C(C)N2CCSC2=NC#N)cc1 (stereo not drawn) [Example 12]
17 | 2.84 | CC(c1ccc(Cl)c(Cl)c1)N1CCSC1=NC#N (stereo not drawn) [Example 13]
18 | 3.11 | CC(C)c1ccc(C(C)N2CCSC2=NC#N)cc1 (stereo not drawn) [Example 15]
19 | 2.41 | N#CN=C1SCCN1C(CF)c1ccc(Cl)cc1 (stereo not drawn) [Example 18]
20 | 2.29 | CC(c1ccc(Cl)cc1)N1CCN(C)C1=NC#N (stereo not drawn) [Example 23]
21 | 2.23 | CC(c1ccc(Cl)cc1)N1CCCN(C)C1=NC#N (stereo not drawn) [Example 28]
22 | 2.81 | CCC(c1ccc(Cl)cc1)N1CCS/C1=N\C#N (stereo not drawn) [Example 39]
23 | 1.86 | CC(c1ccc(Cl)cc1)N1CC[S+]([O-])/C1=N\C#N (stereo not drawn) [Example 40]
24 | 1.48 | CC(c1ccc(Cl)cc1)N1CCCN/C1=N\C(N)=S (stereo not drawn) [Example 41]
25 | 2.21 | CC(c1ccc(Cl)cc1)N1OCCN(C)/C1=N\C#N (stereo not drawn) [Example 42]
26 | 1.48 | CC(c1ccc(Cl)cc1)N1CCCN(C)/C1=N\C(N)=S (stereo not drawn) [Example 43]
27 | 2.65 | CC1CN/C(=N\C#N)N(C(C)c2ccc(Cl)cc2)C1 (stereo not drawn) [Example 49]
28 | 2.52 | CC1CN(C)/C(=N\C#N)N(C(C)c2ccc(Cl)cc2)C1 (stereo not drawn) [Example 50]
29 | 2.63 | CC(c1ccc(Cl)cc1)N1CSCC/C1=N\C#N (stereo not drawn) [Example 51]
30 | 2.28 | CC(c1ccc(Cl)cc1)N1COCC/C1=N\C#N (stereo not drawn) [Example 52]
